Data taken from patent US7902185B2, “Treatment of neurodegenerative diseases using proteasome modulators” (ALS Therapy Development Foundation, Inc., priority 2002, dated 2011).
Read-outs that look alike come from different tables or passages of the source.

Legend:
[1] = tested on: SOD1 G93A mouse model of ALS; experiment: Neurological score in SOD1 G93A mouse model of ALS; assay type: in vivo; details: for Neurological score significance (Males & Females combined): p value, mixed piece wise linear analysis
Experimental: Neurological Scoring: From day 85 onward, neurological score was recorded on a 4-point scale: • 0=Normal reflex on the hind limbs (animal will splay its hind limbs when lifted by its tail) • 1=Abnormal reflex (Lack of splaying of hind limbs when animal is lifted by the tail). • 2=Abnormal reflex and visible evidence of paralysis • 3=Lack of reflex and total paralysis of hind limbs. • 4=Inability to right themselves when placed on the sides in 30 seconds or found dead. The animals are sacrificed at this stage if alive.

[2] = tested on: antigen processing and MHC I expression; details: cited from earlier work
ALS patient = experiment: Ritonavir treatment of an ALS patient; assay type: in vivo, human; details: one patient
Text: The patient was on ventilator and non-ambulatory. The patient was paralyzed below the waist except the neck region, and communicated with head movement using Morse code based computer keys. […] The biceps and forearms of the patient were paralyzed for several years.
After administering Ritonavir® for nine months, the patient underwent neurological examination.

[3] = tested on: SOD1 G93A mouse model of ALS; experiment: Survival in SOD1 G93A mouse model of ALS; details: for Female (% effect on survival) / Female (Days) survival: females; for Combined (% effect on survival) / Combined (Days) survival: males+females; for Combined (Days) survival / Female (Days) survival / Male (Days) survival: mean; for Female (Days) survival / Male (Days) survival: treated; for Male (Days) survival / Male (% effect on survival): males;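 for all read-outs here: heterozygous transgenic SOD1 G93A mice dosed from 60 days of age until death, checked daily for death, compared with vehicle-treated controls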
Experimental: Model Description: The SOD1 G93A (high copy) mouse model is a mouse that carries 25 copies of the human G93A SOD mutation and is driven by the endogenous promoter.
Murine ALS model: Heterozygous transgenic mice carrying the human SOD-1 (G93A) gene were obtained from Jackson Laboratory (Bar Harbor, Me., USA) and experiments were performed under IRB protocol at Massachusetts College of Pharmacy.
Control Drug and Pharmacological Agent Preparation and Delivery: The drugs were formulated in suitable vehicles and control groups were given the same vehicle as treatment. […] Mice were treated from 60 days of age until death and were monitored daily for weight, neurological score and death.
Statistical Analysis: Statistical analysis on the neurological score, body weight and survival was done by utilizing ANOVA, Kaplan Meier, t-test, Cox's proportional hazards regression model and mixed linear model methods. All statistical analysis was performed using standard procedures known in the art.

AIDS patients = details: human, in vivo; cited from earlier work
[4] = Maximal tolerated dose in the mouse studies; assay type: in vivo; details: dose of these studies is quite close to it
Experimental: The dose of Ritonavi® in these studies (50 mg/Kg) is quite close to its maximal tolerated dose.

[5] = tested on: proteasomal chymotrypsin activity; details: at 5 uM concentration; cited from earlier work
[6] = tested on: IκB degradation and NF-κB mediated signal transduction; details: at high doses (approximately 100 μM); cited from earlier work
[7] = tested on: experimental autoimmune encephalomyelitis (EAE); details: previous animal efficacy studies, cited from earlier work
[8] = in vivo; cited from earlier work
cell proliferation = details: by arresting cells in the GI phase the cell cycle; cited from earlier work
[9] = target: LMP7 component of the immunoproteosome (Homo sapiens, UniProt P28062); details: cited from earlier work
caspase 3 = target: T1, caspase 3 (Homo sapiens, UniProt P42574); details: cited from earlier work
T1 sequence (P42574 29-277): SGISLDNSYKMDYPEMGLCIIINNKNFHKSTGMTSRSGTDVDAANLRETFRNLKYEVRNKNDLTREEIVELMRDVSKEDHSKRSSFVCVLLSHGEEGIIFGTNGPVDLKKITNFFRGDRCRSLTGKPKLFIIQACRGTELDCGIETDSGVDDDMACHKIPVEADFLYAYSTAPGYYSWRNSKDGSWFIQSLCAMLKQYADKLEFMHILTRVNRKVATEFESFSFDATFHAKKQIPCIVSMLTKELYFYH

patients with ALS = details: Borras-Blasco et al. (1998); cited from earlier work
proteasome = details: at very high concentrations; cited from earlier work
[10] = after nine months of administration
[11] = Combined Ritonavir studies (100% Litter matched), vs control
[12] = Combined Ritonavir studies (100% Litter matched)
[13] = study Ritonavir-1, 50 mg/Kg/day IP
[14] = study Ritonavir-2, 50 mg/Kg/day IP
[15] = study Ritonavir-3, 50 mg/Kg/day IP

Compound: CC(C)c1nc(CN(C)C(=O)N[C@H](C(=O)N[C@@H](Cc2ccccc2)C[C@H](O)[C@H](Cc2ccccc2)NC(=O)OCc2cncs2)C(C)C)cs1 (relative stereo) [Ritonavir, 10-Hydroxy-2-methyl-5-(1-methylethyl)-4-thiazolyl]-3,6-dioxo-8,11-bis (phenylmethyl)-2,4,7,12-tetraazatridecan-13-oic acid, 5-thiazolylmethyl ester, [5S-(5R*,8R*,10R*,11R*)]]
- Neurological score significance (Males & Females combined) ([1]; study Ritonavir-1): p < 0.0001
- Neurological score significance (Males & Females combined) ([1]; study Ritonavir-2): p < 0.0001
- Neurological score significance (Males & Females combined) ([1]; study Ritonavir-3): p = 0.0007
- disease progression (neurological score), overall conclusion ([1]; three separate studies): reproducible slowing
- antigen processing and MHC I expression [2]: decreased
- therapeutic effects in an ALS patient (ALS patient; 400 mg/day for about nine months): ameliorating the effects of ALS, slowing progression of the disease, and improving survival
- time until beneficial therapeutic effects were experienced (ALS patient; 400 mg/day): after three weeks
- diaphragm strength (neurological examination) (ALS patient; [10]): gained enough strength to dislodge a tracheostomy cuff when sneezing
- pectoral muscle strength (ALS patient; [10]): gained significant strength
- swallowing (neurological examination) (ALS patient; [10]): able to swallow
- muscles that had been paralyzed for years (ALS patient; after treatment): again under conscious control and showed electrical nerve activity
- Female (% effect on survival) [3, 11]: −1%
- Combined (% effect on survival) [3, 11]: 2%
- Combined (Days) survival ([3]; Combined Ritonavir studies (100% Litter matched), treated N=48): 141 days
- Female (Days) survival [3, 12]: 138 days
- Male (Days) survival [3, 12]: 144 days
- Female (% effect on survival) ([3]; study Ritonavir-1, vs control): None
- Combined (% effect on survival) ([3]; study Ritonavir-1, (mean treated-mean control)/mean control*100): 5%
- Male (% effect on survival) ([3]; study Ritonavir-1, vs control): 10%
- Combined (Days) survival ([3]; study Ritonavir-1, treated N=20, 50 mg/Kg/day IP): 145 days
- Female (Days) survival [3, 13]: 141 days
- Male (Days) survival [3, 13]: 149 days
- Female (% effect on survival) ([3]; study Ritonavir-2, vs control): 6%
- Combined (% effect on survival) ([3]; study Ritonavir-2, vs control): 7%
- Male (% effect on survival) ([3]; study Ritonavir-2, vs control): 8%
- Combined (Days) survival ([3]; study Ritonavir-2, treated N=18, 50 mg/Kg/day IP): 149 days
- Female (Days) survival [3, 14]: 144 days
- Male (Days) survival [3, 14]: 153 days
- Female (% effect on survival) ([3]; study Ritonavir-3, vs control): −5%
- Combined (% effect on survival) ([3]; study Ritonavir-3, vs control): 2%
- Male (% effect on survival) ([3]; study Ritonavir-3, vs control): 7%
- Combined (Days) survival ([3]; study Ritonavir-3, treated N=18, 50 mg/Kg/day IP): 137 days
- Female (Days) survival [3, 15]: 134 days
- Male (Days) survival [3, 15]: 139 days
- survival, overall conclusion ([3]; three separate studies): prolongation
- activity compared with positive control riluzole ([3]; three studies, based on neurological score and survival data): more active
- toleration in AIDS patients (AIDS patients): good toleration
- maximal tolerated dose [4]: ~50 mg/kg
- inhibition of proteasomal chymotrypsin activity [5]: inhibition
- inhibition of IκB degradation and NF-κB mediated signal transduction [6]: inhibit
- effect in the EAE model [7]: protective
- effect in the EAE model ([7]; listed as pharmacological agent): prevented the development
- plasma levels, female animals compared to males [8]: higher plasma levels
- cell proliferation (cell proliferation): suppress
- binding to the LMP7 component of the immunoproteosome [9]: binds
- activity of caspase 3 (caspase 3): inhibit

Compound: Nc1nc2ccc(OC(F)(F)F)cc2s1 [Riluzole]
- muscular strength of ALS patients (patients with ALS): does not appear to provide an improvement

Compound: CC(C)(C)NC(=O)[C@@H]1C[C@@H]2CCCC[C@@H]2CN1C[C@@H](O)[C@H](Cc1ccccc1)NC(=O)[C@H](CC(N)=O)NC(=O)c1ccc2ccccc2n1 [saquinavir]
- alteration of proteasome activity (proteasome): alters proteasome activity
